Source: patent publication US20240342292A1, “Compounds for the Degradation of EGFR Kinase” (BeiGene Switzerland GmbH, priority 2021, published 2024)

What was measured:
[1] = system: Del19/T790M/C797S EGFR; assay: EGFR degradation HTRF assay in H1975-clone #28 (DTC) cells; assay type: cell-based; conditions: H1975 # 28 DTC (Del19/T790M/C797S), 16h treatment; for DC50: HTRF; for Dmax (%): maximum percentage of degradation
Summary of the method: (§1)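 Each homozygous H1975 clone was dosed for 16 h at 37 °C with an 8-dose, 5-fold series (top 10 uM, 0.2% DMSO). An HTRF antibody pair then measured EGFR in lysates, and a sigmoidal fit of percent inhibition gave DC50.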

[2] = molecular target: T1, L858R/T790M/C797S EGFR (Homo sapiens, UniProt P00533, C797S/L858R/T790M); assay: EGFR degradation HTRF assay in H1975-clone #25 (LTC) cells; assay type: cell-based; conditions: 16h treatment; for DC50: H1975 # 25-LTC (L858R/T790M/C797S), HTRF; for Dmax: NCI-H1975, H1975 # 25-LTC (L858R/T790M/C797S), maximum percentage of degradation
T1 construct: expressed in transfected cells; host or cells: H1975 clone #25 (lentiviral over-expression, endogenous EGFR knocked out by sgRNA)
Summary of the method: as §1

T1 sequence (P00533 25-1210 T790M/C797S/L858R): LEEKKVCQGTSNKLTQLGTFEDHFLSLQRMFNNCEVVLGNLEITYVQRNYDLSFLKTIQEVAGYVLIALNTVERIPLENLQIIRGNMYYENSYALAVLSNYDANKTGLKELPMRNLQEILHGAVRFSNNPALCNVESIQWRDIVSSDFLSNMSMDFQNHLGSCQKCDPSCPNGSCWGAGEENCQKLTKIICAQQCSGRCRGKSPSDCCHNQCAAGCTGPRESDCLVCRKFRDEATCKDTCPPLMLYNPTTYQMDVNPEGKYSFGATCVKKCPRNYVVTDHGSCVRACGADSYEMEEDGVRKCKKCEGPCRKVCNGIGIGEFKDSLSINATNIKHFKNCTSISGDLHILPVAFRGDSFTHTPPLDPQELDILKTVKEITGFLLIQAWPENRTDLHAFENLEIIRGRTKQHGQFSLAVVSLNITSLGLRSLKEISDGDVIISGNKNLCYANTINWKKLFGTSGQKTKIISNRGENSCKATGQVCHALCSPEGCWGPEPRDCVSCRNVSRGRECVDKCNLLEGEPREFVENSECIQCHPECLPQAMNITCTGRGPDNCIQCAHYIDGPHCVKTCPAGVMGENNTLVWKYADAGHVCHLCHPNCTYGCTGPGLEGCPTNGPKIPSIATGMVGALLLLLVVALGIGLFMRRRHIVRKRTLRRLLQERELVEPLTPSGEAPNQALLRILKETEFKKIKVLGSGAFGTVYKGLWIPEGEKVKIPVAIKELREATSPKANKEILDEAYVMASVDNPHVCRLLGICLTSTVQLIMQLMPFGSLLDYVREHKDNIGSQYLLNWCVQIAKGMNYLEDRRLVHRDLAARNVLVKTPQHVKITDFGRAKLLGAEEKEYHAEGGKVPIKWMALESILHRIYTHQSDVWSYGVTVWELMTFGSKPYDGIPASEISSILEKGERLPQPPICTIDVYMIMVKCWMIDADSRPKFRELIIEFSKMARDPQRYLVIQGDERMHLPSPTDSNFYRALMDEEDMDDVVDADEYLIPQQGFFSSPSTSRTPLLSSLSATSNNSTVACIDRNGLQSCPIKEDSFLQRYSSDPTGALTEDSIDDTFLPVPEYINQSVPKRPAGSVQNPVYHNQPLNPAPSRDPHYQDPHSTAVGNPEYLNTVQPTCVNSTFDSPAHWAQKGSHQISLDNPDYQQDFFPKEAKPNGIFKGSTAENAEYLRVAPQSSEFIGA

With `Cc1cc2cc(n1)-c1cnn(C)c1OCCC[C@@H](C)CN1/C(=N/C2=O)Nc2ccc(CN3CC4(C3)CN(C(=O)[C@H]3CN(c5cc(F)c([C@H]6CCC(=O)NC6=O)c(F)c5)CC3(C)C)C4)cc21` [Example 80, (R)-3-(4-((R)-3,3-dimethyl-4-(6-(((R,E)-1^1,2^6,7-trimethyl-3-oxo-5^2,5^3-dihydro-1^1H,5^1H-11-oxa-4-aza-5(2,1)-benzo[d]imidazola-2(2,4)-pyridina-1(4,5)-pyrazolacycloundecaphane-5^6-yl)methyl)-2,6-diazaspiro[3.3]heptane-2-carbonyl)pyrrolidin-1-yl)-2,6-difluorophenyl)piperidine-2,6-dione] the DC50 [1] was 0.8 nM, the “Dmax (%)” value [1] was 87.0% and the DC50 [2] was 0.8 nM. For the same compound, the Dmax [2] was 87.5%.

For `Cc1cc2cc(n1)-c1cnn(C)c1OCCC[C@@H](C)CN1/C(=N/C2=O)Nc2ccc(C(=O)N3CCN(C(=O)[C@@H]4CCN(c5cc(F)c([C@H]6CCC(=O)NC6=O)c(F)c5)C4)CC3)cc21` [Example 96, (R)-3-(2,6-difluoro-4-((R)-3-(4-((R,E)-1^1,2^6,7-trimethyl-3-oxo-5^2,5^3-dihydro-1^1H,5^1H-11-oxa-4-aza-5(2,1)-benzo[d]imidazola-2(2,4)-pyridina-1(4,5)-pyrazolacycloundecaphane-5^6-carbonyl)piperazine-1-carbonyl)pyrrolidin-1-yl)phenyl)piperidine-2,6-dione], the DC50 [1] was 0.4 nM, the “Dmax (%)” value [1] was 84.3% and the DC50 [2] was 0.6 nM. For the same compound, the Dmax [2] was 87.8%.

For `Cc1cc2cc(n1)-c1cnn(C)c1OCCC[C@@H](C)CN1/C(=N/C2=O)Nc2ccc(C(=O)N[C@@H]3CCN(CCc4cc(F)c([C@H]5CCC(=O)NC5=O)c(F)c4)[C@H](C)C3)cc21` [Example 269, (R,E)-N—((2R,4R)-1-(4-((R)-2,6-dioxopiperidin-3-yl)-3,5-difluorophenethyl)-2-methylpiperidin-4-yl)-1^1,2^6,7-trimethyl-3-oxo-5^2,5^3-dihydro-1^1H,5^1H-11-oxa-4-aza-5(2,1)-benzo[d]imidazola-2(2,4)-pyridina-1(4,5)-pyrazolacycloundecaphane-5^6-carboxamide], the DC50 [1] was 0.638 nM, the “Dmax (%)” value [1] was 82.6% and the DC50 [2] was 0.316 nM. For the same compound, the Dmax [2] was 92.7%.

`Cc1cc2cc(n1)-c1cnn(C)c1OCCC[C@@H](C)CN1/C(=N/C2=O)Nc2ccc(C(=O)N[C@H]3CCN(CCc4cc(F)c([C@H]5CCC(=O)NC5=O)c(F)c4)CC3(C)C)cc21` [Example 261, (R,E)-N—((S)-1-(4-((R)-2,6-dioxopiperidin-3-yl)-3,5-difluorophenethyl)-3,3-dimethylpiperidin-4-yl)-1^1,2^6,7-trimethyl-3-oxo-5^2,5^3-dihydro-1^1H,5^1H-11-oxa-4-aza-5(2,1)-benzo[d]imidazola-2(2,4)-pyridina-1(4,5)-pyrazolacycloundecaphane-5^6-carboxamide] was tested, and the DC50 [1] was 0.621 nM, the “Dmax (%)” value [1] was 83.61% and the DC50 [2] was 0.51 nM. The Dmax [2] was 91.8%.

`Cc1cc2cc(n1)-c1cnn(C)c1OCCC[C@@H](C)CN1/C(=N/C2=O)Nc2ccc(CN3CCN(CC4CN(c5cc(F)c([C@H]6CCC(=O)NC6=O)c(F)c5)C4)CC3)c(C)c21` [Example 148, (R)-3-(2,6-difluoro-4-(3-((4-(((R,E)-1^1,2^6,5^7,7-tetramethyl-3-oxo-5^2,5^3-dihydro-1^1H,5^1H-11-oxa-4-aza-5(2,1)-benzo[d]imidazola-2(2,4)-pyridina-1(4,5)-pyrazolacycloundecaphane-5^6-yl)methyl)piperazin-1-yl)methyl)azetidin-1-yl)phenyl)piperidine-2,6-dione] was tested, and the DC50 [1] was 3.09 nM, the “Dmax (%)” value [1] was 70.93% and the DC50 [2] was 1.89 nM. The Dmax [2] was 78.7%.

With `COC[C@@H]1CN(C2CCN(c3cc(F)c([C@H]4CCC(=O)NC4=O)c(F)c3)CC2)CCN1c1ccc2c(c1)N1C[C@H](C)CCCOc3c(cnn3C)-c3cc(cc(C)n3)C(=O)/N=C/1N2` [Example 386, (R)-3-(2,6-difluoro-4-(4-((S)-3-(methoxymethyl)-4-((R,E)-1^1,2^6,7-trimethyl-3-oxo-5^2,5^3-dihydro-1^1H,5^1H-11-oxa-4-aza-5(2,1)-benzo[d]imidazola-2(2,4)-pyridina-1(4,5)-pyrazolacycloundecaphane-5-yl)piperazin-1-yl)piperidin-1-yl)phenyl)piperidine-2,6-dione] the DC50 [1] was 2.01 nM, the “Dmax (%)” value [1] was 72.30% and the DC50 [2] was 2.7 nM. It also gave a Dmax [2] of 86.6%.

In the case of `Cc1cc2cc(n1)-c1cnn(C)c1OCCC[C@@H](C)CN1/C(=N/C2=O)Nc2ccc(C(=O)N3CCC4(CC3)CN(C(=O)C3CN(c5cc(F)c([C@H]6CCC(=O)NC6=O)c(F)c5)C3)C4)cc21` [Example 221, (R)-3-(2,6-difluoro-4-(3-(7-((R,E)-1^1,2^6,7-trimethyl-3-oxo-5^2,53-dihydro-1^1H,5^1H-11-oxa-4-aza-5(2,1)-benzo[d]imidazola-2(2,4)-pyridina-1(4,5)-pyrazolacycloundecaphane-5^6-carbonyl)-2,7-diazaspirononane-2-carbonyl)azetidin-1-yl)phenyl)piperidine-2,6-dione], the DC50 [1] was 0.901 nM, the “Dmax (%)” value [1] was 85.41% and the DC50 [2] was 0.705 nM. The Dmax [2] was 94%.

`Cc1cc2cc(n1)-c1cnn(C)c1OCCC[C@@H](C)CN1/C(=N/C2=O)Nc2ccc(C(=O)N(C)[C@H]3CCN(CCc4cc(F)c([C@H]5CCC(=O)NC5=O)c(F)c4)[C@H](C)C3)cc21` [Example 259, (R,E)-N—((2R,4S)-1-(4-((R)-2,6-dioxopiperidin-3-yl)-3,5-difluorophenethyl)-2-methylpiperidin-4-yl)-N,1^1,2^6,7-tetramethyl-3-oxo-5^2,5^3-dihydro-1^1H,5^1H-11-oxa-4-aza-5(2,1)-benzo[d]imidazola-2(2,4)-pyridina-1(4,5)-pyrazolacycloundecaphane-5^6-carboxamide] was tested, and the DC50 [1] was 0.725 nM, the “Dmax (%)” value [1] was 83.21% and the DC50 [2] was 0.841 nM. For the same compound, the Dmax [2] was 89.2%.

In the case of `Cc1cc2cc(n1)-c1cnn(C)c1OCCC[C@@H](C)CN1/C(=N/C2=O)Nc2ccc(N3CCC(C(=O)N4CCC(Nc5cc(F)c([C@H]6CCC(=O)NC6=O)c(F)c5)CC4)CC3)cc21` [Example 402, (R)-3-(2,6-difluoro-4-((1-(1-((R,E)-1^1,2^6,7-trimethyl-3-oxo-5^2,53-dihydro-1^1H,5^1H-11-oxa-4-aza-5(2,1)-benzo[d]imidazola-2(2,4)-pyridina-1(4,5)-pyrazolacycloundecaphane-5^6-yl)piperidine-4-carbonyl)piperidin-4-yl)amino)phenyl)piperidine-2,6-dione], the DC50 [1] was 0.525 nM, the “Dmax (%)” value [1] was 82.56% and the DC50 [2] was 0.633 nM. It also gave a Dmax [2] of 88.3%.

For `Cc1cc2cc(n1)-c1cnn(C)c1OCCC[C@@H](C)CN1/C(=N/C2=O)Nc2ccc(NC3CN(C4CCN(c5cc(F)c([C@H]6CCC(=O)NC6=O)c(F)c5)CC4)C3)cc21` [Example 459, (R)-3-(2,6-difluoro-4-(4-(3-(((R,E)-1^1,2^6,7-trimethyl-3-oxo-5^2,5^3-dihydro-1^1H,5^1H-11-oxa-4-aza-5(2,1)-benzo[d]imidazola-2(2,4)-pyridina-1(4,5)-pyrazolacycloundecaphane-5^6-yl)amino)azetidin-1-yl)piperidin-1-yl)phenyl)piperidine-2,6-dione], the DC50 [1] was 0.624 nM, the “Dmax (%)” value [1] was 73.95% and the DC50 [2] was 0.431 nM. It also gave a Dmax [2] of 84.1%.

In the case of `Cc1cc2cc(n1)-c1cnn(C)c1OCCC[C@@H](C)CN1/C(=N/C2=O)Nc2ccc(C(=O)N(C)C3CCN(CCc4cccc5c4C(C)(C)C(=O)N5C4CCC(=O)NC4=O)CC3)cc21` (stereo partly drawn) [Example 317, (7R,E)-N-(1-(2-(1-(2,6-dioxopiperidin-3-yl)-3,3-dimethyl-2-oxoindolin-4-yl)ethyl)piperidin-4-yl)-N,1^1,2^6,7-tetramethyl-3-oxo-5^2,5^3-dihydro-1^1H,5^1H-11-oxa-4-aza-5(2,1)-benzo[d]imidazola-2(2,4)-pyridina-1(4,5)-pyrazolacycloundecaphane-5^6-carboxamide], the DC50 [1] was 0.728 nM, the “Dmax (%)” value [1] was 52.86% and the DC50 [2] was 1.14 nM. The Dmax [2] was 80.2%.

For `Cc1cc2cc(n1)-c1cnn(C)c1OCCC[C@@H](C)CN1/C(=N/C2=O)Nc2ccc(C(=O)N(C)[C@H]3CCN(CCNc4cc(F)c([C@H]5CCC(=O)NC5=O)c(F)c4)C[C@@H]3F)cc21` [Example 352, (R,E)-N—((3S,4S)-1-(2-((4-((R)-2,6-dioxopiperidin-3-yl)-3,5-difluorophenyl)amino)ethyl)-3-fluoropiperidin-4-yl)-N,1^1,2^6,7-tetramethyl-3-oxo-5^2,5^3-dihydro-1^1H,5^1H-11-oxa-4-aza-5(2,1)-benzo[d]imidazola-2(2,4)-pyridina-1(4,5)-pyrazolacycloundecaphane-5^6-carboxamide], the DC50 [1] was 0.814 nM, the “Dmax (%)” value [1] was 79.43% and the DC50 [2] was 0.847 nM. The Dmax [2] was 85.6%.

With `Cc1cc2cc(n1)-c1cnn(C)c1OCCC[C@@H](C)CN1/C(=N/C2=O)Nc2ccc(CN3CCC4(CC3)CCN(C(=O)C3CN(c5cc(F)c([C@H]6CCC(=O)NC6=O)c(F)c5)C3)CC4)cc21` [Example 12, (R)-3-(2,6-difluoro-4-(3-(9-(((R,E)-1^1,2^6,7-trimethyl-3-oxo-5^2,53-dihydro-1^1H,5^1H-11-oxa-4-aza-5(2,1)-benzo[d]imidazola-2(2,4)-pyridina-1(4,5)-pyrazolacycloundecaphane-5^6-yl)methyl)-3,9-diazaspiro[5.5]undecane-3-carbonyl)azetidin-1-yl)phenyl)piperidine-2,6-dione] the DC50 [1] was 0.5 nM, the “Dmax (%)” value [1] was 86.7% and the DC50 [2] was 0.6 nM. It also gave a Dmax [2] of 94.3%.
